In paper PMC6136360, “Novel group of tyrosyl-DNA-phosphodiesterase 1 inhibitors based on disaccharide nucleosides as drug prototypes for anti-cancer therapy” (Journal of Enzyme Inhibition and Medicinal Chemistry, 2018):

Legend:
[1] = biological target: T1, TDP1 (Homo sapiens, UniProt Q9NUW8); assay: Real-time fluorescence detection of TDP1 activity, single-stranded FAM/BHQ biosensor; assay type: biochemical; conditions: for Inhibitory effect on TDP1 activity (in words): single-stranded fluorescent biosensor, primary screening; for IC50: single-stranded fluorescent biosensor 50 nM, TDP1 1.5 nM, 26 °C, read-out: IC50 (half-maximal inhibitory concentration) of TDP1 activity
T1 construct: made in house; host or cells: E. coli
Procedure: (§1) Conditions and details for our real-time detection of TDP1 activity using the single-stranded and hairpin fluorescent biosensors were reported in our previous work[47]. Briefly, the approach consists in fluorescence intensity measurement of the reaction of quencher removal from the fluorophore-quencher coupled DNA-oligonucleotide catalysed by TDP1 in the presence of inhibitor and in the absence of it (the control samples contained 1% DMSO). Reaction mixtures (200 µl) contained TDP1 buffer (50 mM Tris-HCl, pH 8.0, 50 mM NaCl, 7 mM β-mercaptoethanol), oligonucleotide (50 nM substrate of TDP1), testable inhibitor and purified TDP1 (1.5 nM). The reactions were incubated at a constant temperature of 26 °C in a POLARstar OPTIMA fluorimeter, BMG LABTECH, GmbH, to measure fluorescence every 55 s (Ex485/Em520 nm) during the linear phase (here data from 0 to 8 min). The average values of half maximal inhibitory concentration (IC50) were determined using an eleven-point concentration response curve in three independent experiments and calculated using MARS Data Analysis 2.0 (BMG LABTECH).
To discover inhibitors of TDP1 we recently developed original single-stranded and hairpin fluorophore–quencher coupled DNA-biosensors for real-time measurement of TDP1 cleavage activity. The single-stranded substrate is a 16-mer oligonucleotide containing both 5′-FAM fluorophore donor and a quenching 3′-BHQ moiety (Figure 1(A)). When the quencher is removed by TDP1, the fluorescence intensity increases and can be measured by fluorimeter (TDP1 catalysed reaction on biosensor is shown in Figure 3(A). Fluorescence intensity declines in the presence of inhibitor, the resulting curves of the dependence of TDP1 residual activity as a function of the concentration of inhibitors were obtained using 4-parameter logistic regression fit, which was used to calculate IC50 values[47]^,[58].
For primary screening, the effect of a large group of disaccharide nucleosides and their hydrophobic derivatives on human recombinant TDP1 activity has been evaluated by fluorescent method on a single-stranded substrate described above.

[2] = Water solubility (qualitative); assay type: physicochemical
[3] = biological target: T1, TDP1; assay: Steady-state kinetic analysis of TDP1 reaction, single-stranded substrate; assay type: biochemical; conditions: for Ki: Cornish-Bowden method, read-out: Inhibition constant, KI
Procedure: (§2) To determine the kinetic parameters: apparent maximum rate of enzymatic reaction (Vmax), Michaelis constant (KM), constant of inhibition (KI), and possible inhibition mechanism, steady-state kinetic experiments were carried out at five fixed concentrations of substrate with variation of inhibitor concentrations. The standard reaction mixtures (200 μl) contained 50 nM, 100 nM, 200 nM, 500 nM or 1000 nM substrate, testable inhibitor, 1.5 nM recombinant human TDP1 and reaction buffer components (50 mM Tris-HCl, pH 8.0, 50 mM NaCl, 7 mM β-mercaptoethanol). After addition of the enzyme, the reaction mixtures were incubated at a constant temperature of 26 °C and measured in a POLARstar OPTIMA fluorimeter, BMG LABTECH, GmbH, to measure fluorescence every 55 s (Ex485/Em520 nm) during the linear phase (data from 0 to 8 min). The initial data (kinetic curves) were obtained in three independent experiments and statistically processed in software OriginPro 8.6.0.
Vmax and KM decrease proportionally (Figure 6(A,B)), which corresponds to the uncompetitive type of inhibition, according to the general equation of the rate of product formation in the Michaelis–Menten kinetics.
(§3) Values of the inhibition constant (KI) were determined using Cornish–Bowden method. Similar experiments were performed for all seven tested inhibitors on two types of DNA substrates, and the results are shown in Table 4.

[4] = biological target: T1, TDP1; assay: Steady-state kinetic analysis of TDP1 reaction, double-stranded (hairpin) substrate; assay type: biochemical; conditions: for Ki: Cornish-Bowden method, read-out: Inhibition constant, KI
Procedure: as §2, §3

[5] = biological target: T2, SCAN1 (mutant form of TDP1 with H493R substitution) (Homo sapiens, UniProt Q9NUW8, H493R); assay: Fluorescence real-time assay on mutant TDP1 (SCAN1), single-stranded oligonucleotide; assay type: biochemical
T2 construct: made in house; host or cells: E. coli
From the text: The recombinant tyrosyl-DNA phosphodiesterase 1 and the mutant form of TDP1 with substitution (H493R) were expressed in the E. coli system (plasmids pET16B-TDP1 and pET16B-SCAN1 were provided by Dr. K.W. Caldecott, University of Sussex, United Kingdom and by Dr. S. El-Khamisy, University of Sheffield, United Kingdom) and purified according to the previously described technique.
as §1
The IC50 values obtained by the fluorescence real-time assay on a single-stranded oligonucleotide (section 3.1) were higher than 100 μM.

[6] = tested on: A-549 cell line (adenocarcinomic human alveolar basal epithelial cells); assay: MTT test, cytotoxicity and combination with topotecan, A-549; assay type: cell-based; conditions: A-549 cells; for Synergistic coefficient (SC) with topotecan: MTT, inhibitor in combination with topotecan, SC < 1 indicates synergy; for Effect on cytotoxic effect of topotecan (in words): non-toxic inhibitor concentrations
Procedure: (§4) Tumour cell line A549 (adenocarcinomic human alveolar basal epithelial cells) and noncancerous cell line WI-38 (fibroblasts derived from lung tissue of a 3 months gestation […] fetus) were used in cell-based experiments to determine the cytotoxicity of inhibitors and their effect on antitumour drug topotecan using standard MTT test[48]. Cells were incubated in Iscove’s Modified Dulbecco’s Medium (IMDM) supplemented with 10% fetal bovine serum and 40 µg/ml gentamicin, 10 U/ml penicillin, […], 0.25 µg/ml amphotericin at 37 °C and 5% CO2 for 24 h in a CO2 incubator; the optical density of the final solution was measured in the wells of the microplate at 570 nm and 620 nm wavelengths using a MultiScan FC (Thermo Scientific) microplate reader.
(§5) To study the effect of inhibitors on the cytotoxic effect of a well-known antitumour drug, the topotecan of the manufacturer “ACTAVIS GROUP PTC ehf.” was used. First of all, the 50% cytotoxic concentration (CC50) for topotecan and each inhibitor were determined to produce a defined single-agent effect. Second, three independent MTT-tests were performed with each inhibitor in combination with topotecan. Then, the synergistic coefficient (SC) was calculated according to the following formula (2)[49]: (2) SC= CC50 tpc,(+I)/CC50 tpc+CC50 I, (+tpc)/CC50 I,
(§6) CC50 tpc,(+I) and CC50 I,(+tpc) are the concentrations of topotecan and inhibitor used in combination to achieve 50% drug effect. CC50 tpc and CC50 I are the concentrations for single agents to achieve the same effect. SC values of less than, equal to, or more than 1 indicates synergy, additivity, and antagonism, respectively. The results were calculated and statistically processed in Microsoft Excel.

[7] = biological target: T1, TDP1; assay: Fluorescence anisotropy assay of TDP1-DNA substrate complex; assay type: binding; conditions: 3 nM single-strand oligonucleotide without quencher, 50 nM TDP1
Procedure: Fluorescence anisotropy was measured by using a fluorescent single-strand DNA-oligonucleotide (3 nM) without quencher at the 3′-end in the presence of the inhibitor in different concentrations (Fluorescein control, CFlu = 10^−9 M). Reaction mixtures (200 µl) contained TDP1 buffer (50 mM Tris-HCl, pH 8.0, 50 mM NaCl, 7 mM β-mercaptoethanol), a single-strand DNA-oligonucleotide without quencher (3 nM substrate of TDP1), a testable inhibitor and the purified TDP1 (50 nM). The reactions were incubated at a constant temperature of 26 °C in a POLARstar OPTIMA fluorimeter, BMG LABTECH, GmbH, to measure fluorescence anisotropy every 55 s (Ex482/Em530 nm) during the linear phase (from 0 to 8 min) in two independent experiments.
Fluorescence anisotropy (r) was calculated by using the Equation (1): (1) r = (III–I⊥)/(III+ 2I⊥)
The dependence of the anisotropy on the concentration of the inhibitor was determined using a six-point response curve in two independent experiments and calculated using MARS Data Analysis 2.0 (BMG LABTECH).
To obtain some information about interaction of disaccharide nucleosides with TDP1, anisotropy of the fluorescent DNA substrate was measured. We used single-stranded oligonucleotide without a quencher at the 3′-end in the presence of testable inhibitors at different concentrations.

[8] = tested on: WI-38 cell line (noncancerous fibroblasts derived from lung tissue); assay: MTT test, cytotoxicity and combination with topotecan, WI-38; assay type: cell-based, human; conditions: WI-38 non-cancerous cell line
Procedure: as §4, §5, §6

T2 sequence (Q9NUW8 whole entry H493R): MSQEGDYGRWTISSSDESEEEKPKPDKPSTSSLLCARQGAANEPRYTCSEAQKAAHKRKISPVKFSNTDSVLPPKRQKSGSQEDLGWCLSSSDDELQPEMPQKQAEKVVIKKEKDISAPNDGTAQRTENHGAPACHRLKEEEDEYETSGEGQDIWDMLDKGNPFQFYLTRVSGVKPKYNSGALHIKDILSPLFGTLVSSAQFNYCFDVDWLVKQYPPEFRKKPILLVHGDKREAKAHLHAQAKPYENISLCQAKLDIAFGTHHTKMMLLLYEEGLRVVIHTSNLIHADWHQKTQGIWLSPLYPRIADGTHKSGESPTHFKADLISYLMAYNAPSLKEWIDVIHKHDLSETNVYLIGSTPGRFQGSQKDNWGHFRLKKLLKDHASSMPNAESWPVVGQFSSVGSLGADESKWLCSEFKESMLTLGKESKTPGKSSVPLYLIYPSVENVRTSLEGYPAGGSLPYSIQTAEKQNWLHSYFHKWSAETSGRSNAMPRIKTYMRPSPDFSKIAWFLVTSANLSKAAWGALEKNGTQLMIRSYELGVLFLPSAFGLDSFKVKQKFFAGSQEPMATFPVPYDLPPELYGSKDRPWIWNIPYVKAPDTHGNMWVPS
T1 sequence (Q9NUW8 whole entry): as the sequence (Q9NUW8 whole entry H493R) above, with R493H counted along it

Compound	Inhibitory effect on TDP1 activity (in words) [1]	Water solubility (in words) [2]	IC50 [1] [µM]	Type of inhibition [3]	Ki [3] [µM]	Type of inhibition [4]	Ki [4] [µM]	IC50 [5] [µM]	Synergistic coefficient (SC) with topotecan [6]	Effect on cytotoxic effect of topotecan (in words) [6]	Change of fluorescence anisotropy with inhibitor concentration [7]	Synergy with topotecan (in words) [8]
Nc1ncnc2c1ncn2[C@@H]1O[C@H](CO)[C@@H](O)[C@H]1O[C@@H]1O[C@H](COP(=O)([O-])[O-])[C@@H](O)[C@H]1O.[Na+].[Na+] [Compound 3]	low inhibitory effect	water-soluble										
CC(C)[Si]1(C(C)C)OC[C@H]2O[C@@H](n3cnc4c(NC(=O)c5ccccc5)ncnc43)[C@H](O[C@@H]3O[C@H](COC(=O)c4ccccc4)[C@@H](OC(=O)c4ccccc4)[C@H]3OC(=O)c3ccccc3)[C@@H]2O[Si](C(C)C)(C(C)C)O1 [Compound 4]			1.3 ± 0.2	Mixed	0.3 ± 0.1	Mixed	0.2 ± 0.1	> 100	less than or equal to 0.7	significant increase of cytotoxic effect of topotecan	significant decrease in the anisotropy	
Cc1cn([C@@H]2O[C@H](COP(=O)([O-])[O-])[C@@H](O)[C@H]2O[C@@H]2O[C@H](CO)[C@@H](O)[C@H]2O)c(=O)[nH]c1=O.[Na+].[Na+] [Compound 6]		high water solubility	18.5 ± 0.8	Noncompetitive	7.9 ± 0.8	Noncompetitive	8.8 ± 0.9	> 100		significant increase of cytotoxic effect of topotecan	anisotropy remained unchanged	
Cc1cn([C@@H]2O[C@@H]3CO[Si](C(C)C)(C(C)C)O[Si](C(C)C)(C(C)C)O[C@H]3[C@H]2O[C@@H]2O[C@H](COC(=O)c3ccccc3)[C@@H](OC(=O)c3ccccc3)[C@H]2OC(=O)c2ccccc2)c(=O)[nH]c1=O [Compound 7]				Mixed	0.9 ± 0.3	Mixed	0.3 ± 0.1	> 100	less than or equal to 0.7	significant increase of cytotoxic effect of topotecan	significant decrease in the anisotropy	
Nc1nc2c(ncn2[C@@H]2O[C@H](CO)[C@@H](O)[C@H]2O[C@@H]2O[C@H](COP(=O)([O-])[O-])[C@@H](O)[C@H]2O)c(=O)[nH]1.[Na+].[Na+] [Compound 9]	not active at all	water-soluble										
CC(C)C(=O)Nc1nc2c(ncn2[C@@H]2O[C@H](CO)[C@@H](O)[C@H]2O[C@@H]2O[C@H](COC(=O)c3ccccc3)[C@@H](OC(=O)c3ccccc3)[C@H]2OC(=O)c2ccccc2)c(=O)[nH]1 [Compound 10]				Mixed	1.7 ± 0.4	Mixed	3.1 ± 0.3	> 100	less than or equal to 0.7	significant increase of cytotoxic effect of topotecan	significant decrease in the anisotropy	demonstrated synergy with topotecan
CC(C)C(=O)Nc1nc2c(ncn2[C@@H]2O[C@@H]3CO[Si](C(C)C)(C(C)C)O[Si](C(C)C)(C(C)C)O[C@H]3[C@H]2O[C@@H]2O[C@H](COC(=O)c3ccccc3)[C@@H](OC(=O)c3ccccc3)[C@H]2OC(=O)c2ccccc2)c(=O)[nH]1 [Compound 11]				Mixed	0.2 ± 0.1	Mixed	0.3 ± 0.2	> 100		significant increase of cytotoxic effect of topotecan	significant decrease in the anisotropy	
CC(C)[Si]1(C(C)C)OC[C@H]2O[C@@H](n3ccc(=O)[nH]c3=O)[C@H](O[C@@H]3O[C@H](COC(=O)c4ccccc4)[C@@H](OC(=O)c4ccccc4)[C@H]3OC(=O)c3ccccc3)[C@@H]2O[Si](C(C)C)(C(C)C)O1 [Compound 21]				Mixed	0.3 ± 0.2	Mixed	0.4 ± 0.3	> 100	less than or equal to 0.7	significant increase of cytotoxic effect of topotecan	significant decrease in the anisotropy	demonstrated synergy with topotecan
